US8552065B2, “Biarylamide derivative and compositions containing the derivative as an active ingredient” (Catholic University Industry Academy Cooperation Foundation, priority 2010, dated 2013)

Key:
[1] = test system: Melan-a cells, that is, mouse melanocytes; assay: Melanin production inhibition by biarylamide derivatives in melan-a cells (Example 2-2); format: cell-based; conditions: 30 mM derivative, 10 μl per day for 3 days, final concentration 300 μM, absorbance 400 nm
Method: Melan-a cells, that is, mouse melanocytes, were inoculated onto a 24-well culture plate (10^5 cells), and cultured in RPMI1640 medium including fetal bovine serum (FBS) 10% and 200 nM of phorbol 12-myristate 13-acetate (TPA) for 24 hours. Then, in each well, 990 μl of RPMI1640 medium including FBS 10% and 200 nM TPA was treated with 30 mM of the inventive biarylamide derivative (10 μl per day for 3 days) (final concentration 300). The last day of treatment, the cells were washed with Phosphate buffered saline (PBS) three times, lysed with 1 ml of 1M sodium hydroxide (NaOH) solution, and measured using ELISA Leader at absorbance of 400 nm.

[2] = test system: Melan-a cells, that is, mouse melanocytes; assay: Melanin production inhibition by A3/B5 in melan-a cells, with cell viability (Example 3); format: cell-based; conditions: A3/B5 treatment per day for 3 days, final concentration 1, 10, and 25 (unit not given), FIG. 1A
Method: (§1) In order to examine the effect of A3/B5 on melanin inhibition, the degree of melanin production was analyzed using melan-a cells, that is, mouse melanocytes and human normal melanocytes. Melanocytes were inoculated onto a 24-well culture plate (10^5 cells) and cultured in RPMI1640 medium including fetal bovine serum (FBS) 10% and 200 nM of phorbol 12-myristate 13-acetate (TPA) for 24 hours. Then, in each well, 990 μl of RPMI1640 medium including FBS 10% and 200 nM TPA was treated with
(§2) 100, 1000, and 2500 of A3/B5 (10 μl per day for 3 days) (final concentration 1, 10, and 25). The last day of treatment, the cells were washed with Phosphate buffered saline (PBS) three times, lysed with 1 ml of 1M sodium hydroxide (NaOH) solution, and measured using ELISA Leader at absorbance of 400 nm. Additionally, in order to determine if the inhibition of melanin production is caused by apoptosis, cell viability was examined under the same condition as described above. For this, The last day of treatment, the cells were washed with phosphate buffered saline (PBS) three times, and the cells in each well were stained with 200 μl of Crystal Violet (0.1%, EtOH 10%, PBS 89.9%) for 5 minutes, washed with phosphate buffer, lysed in 1 ml of ethanol solution, and measured at absorbance of 590 nm. Further, this experiment was performed for human normal melanocytes in the same manner.

[3] = test system: TRP-2 (Tyrosinase related protein-2, Dopachrom tautomerase); assay: TRP-2 expression in melan-a cells by western blotting (Example 4); format: cell-based, mouse; conditions: 50 uM
Method: In order to examine the effects of A3/B5 on TRP-2 expression, mouse melanocytes (melan-a) were cultured in RPMI1640 medium including fetal bovine serum (FBS) 10% and 200 nM of phorbol 12-myristate 13-acetate (TPA) for 24 hours, and treated with A3/B5 at a concentration of 50 uM (per day for 3 days). In order to determine the expression level of TRP-2 over 3 days, each test group was lysed in RIPA buffer solution containing 2 mM EDTA, 137 mM NaCl, 20 mM Tris-HCl (pH 8.0), 1 mM sodium vanadate, 10 mM NaF, 1 mM PMSF (phenylmethanesulfonyl fluoride), 1% NP-40, 10% glycerol and a protease inhibitor cocktail, and protein was separated by SDS-PAGE electrophoresis using 10% acrylamide gel. This was transferred to a nylon membrane, and TRP-2 protein was analyzed by anti TRP-2 antibody (santacuz, US) and anti-Rabbit IgG horse Radish Peroxidase (HRP) conjugation antibody (1;10000, zymed) as a secondary antibody. This was detected by Chemiluminescence reagent kit (ECL, Amersham, US) and then imaged using RAS 3000 Imaging system (FUJI film, Japan) as an image analyzer. Further, in a case where the cells were treated with A3B5 once on the first day of 3 consecutive days, the expression level of TRP-2 over 3 days was also analyzed in the same manner as described above.

[4] = test system: A375 human melanoma cell lines; assay: A375 melanoma cell growth inhibition, BrdU cell proliferation assay (Example 5); format: cell-based; conditions: respective concentrations, 48 hours, absorbance 450 nm, FIG. 3
Method: A375 cells were inoculated onto a 96 well plate (3×10^3 cells), and cultured in DMEM containing fetal bovine serum (FBS) 10% for 16 hours, and then treated with A3/B5 at respective concentrations, and cultured for 48 hours. Then, by using BrdU cell proliferation assay kit (Roche, Germany), the degree of cell growth inhibition by A3/B5 was examined.

[5] = test system: B16F10 mouse melanoma cell; assay: B16F10 melanoma cell proliferation in hairless mouse model (Example 6); format: in vivo; conditions: hairless mice; 100 μl of 1 mM A3/B5 injected into the cell region for 5 days; sectioned on 6th day; FIG. 4
Method: In order to examine the effect of A3/B5 on the inhibition of melanoma cell proliferation, into the back of 5 hairless mice, at both sides of subcutaneous tissues, 5×10^5 B16F10 cells (B16F10 mouse melanoma cell) were injected. Then, 48 hours later, into the region injected with the cells, 100 μl of A3/B5 diluted with phosphate buffer solution to a concentration of 1 mM, and 100 μl of phosphate buffer solution as a control, were injected for 5 days, respectively. On the 6th day, the injected cell region was sectioned and its size and weight were analyzed.

[6] = test system: human normal melanocytes; assay: Melanin production inhibition by A3/B5 in human normal melanocytes (Example 3); format: cell-based; conditions: A3/B5 treatment per day for 3 days, final concentration 1, 10, and 25 (unit not given), FIG. 1B
Method: as §1, §2

Compound | Reduction rate of melanin(%) [1] [%] | further results
Cc1ccc(C(=O)Nc2cccc(C)c2)cc1 [A1/B3, 4-methyl-N-m-tolylbenzamide] | 32.6 | –
COc1ccccc1NC(=O)c1ccccc1C [A4/B1, N-(2-Methoxyphenyl)-2-methylbenzamide] | 17.7 | –
CCc1ccc(C(=O)Nc2ccccc2C(=O)OC)cc1 [A12/B4, methyl 2-(4-ethylbenzamido)benzoate] | 9.4 | –
COC(=O)c1ccc(NC(=O)c2cccc(C)c2)cc1 [A14/B2, Methyl 4-(3-methylbenzamido)benzoate] | 30.6 | –
COc1ccc(C(=O)Nc2cccc(C)c2)cc1 [A1/B6, 4-methoxy-N-m-tolylbenzamide] | 24.3 | –
CCCCOc1ccc(NC(=O)c2ccccc2C)cc1 [A11/B1, N-(4-Butoxyphenyl)-2-methylbenzamide] | 8.9 | –
Cc1cccc(NC(=O)c2ccc(C#N)cc2)c1 [A1/B7, 4-cyano-N-m-tolylbenzamide] | 34.2 | –
COC(=O)c1ccccc1NC(=O)c1ccc(OC)cc1 [A12/B6, methyl 2-(4-methoxybenzamido)benzoate] | 39.0 | –
CC(=O)c1ccc(NC(=O)c2ccc(C)cc2)cc1 [A10/B3, N-(4-acetylphenyl)-4-methylbenzamide] | 10.4 | –
COC(=O)c1ccccc1NC(=O)c1ccc(C)cc1 [A12/B3, methyl 2-(4-methylbenzamido)benzoate] | 9.4 | –
Cc1ccc(NC(=O)c2ccc(C)cc2)cc1 [A2/B3, 4-methyl-N-p-tolylbenzamide] | 8.6 | –
Cc1ccc(C(=O)Nc2cc(C)cc(C)c2)cc1 [A3/B3, N-(3,5-dimethylphenyl)-4-methylbenzamide] | 35.8 | –
CCc1ccc(C(=O)Nc2cc(C)cc(C)c2)cc1 [A3/B4, N-(3,5-dimethylphenyl)-4-ethylbenzamide] | 36.5 | –
Cc1cc(C)cc(NC(=O)c2ccc(C#N)cc2)c1 [A3/B7, 4-cyano-N-(3,5-dimethylphenyl)benzamide] | 50.6 | –
COc1ccc(OC)c(NC(=O)c2ccccc2C)c1 [A8/B1, N-(2,5-Dimethoxyphenyl)-2-methylbenzamide] | 45.5 | –
CCc1ccc(C(=O)Nc2cccc(C)c2)cc1 [A1/B4, 4-ethyl-N-m-tolylbenzamide] | 23.3 | –
COc1cccc(C(=O)Nc2cc(C)cc(C)c2)c1 [A3/B5, N-(3,5-dimethylphenyl)-3-methoxybenzamide] | 48.7 | reduction in melanin production content of melanocytes with respect to cell viability, as compared to a non-treated group [2]: about 40%; expression level of TRP-2 protein as compared to non-treated group ([3]; treated daily for 3 days, FIG. 2A): significant reduction; expression level of TRP-2 protein as compared to non-treated group ([3]; treated only once on the first day of 3 consecutive days, FIG. 2B): significant reduction; inhibition on growth of A375 melanoma cells [4]: inhibition on growth of A375 melanoma cells was increased; size of injected B16F10 cell region versus phosphate buffer control [5]: smaller; weight of injected B16F10 cell region versus phosphate buffer control [5]: smaller; reduction in melanin production content of melanocytes with respect to cell viability, as compared to a non-treated group [6]: about 20%
